According to patent US6413948B1, “Pharmaceutical compositions and methods of effecting a neuronal activity in an animal using naaladase inhibitors” (Guilford Pharmaceuticals Inc., priority 1996, dated 2002):
Like-named read-outs stand apart in the source and are kept apart here. Residues, ends and D or L forms follow the SMILES beside them.

What was measured:
NAALADase [1] = target: T1, NAALADase (UniProt P70627); experiment: In vitro inhibition of NAALADase activity; type: biochemical; conditions: for Ki: [3H]Glu liberated from [3H]NAAG, synaptosomal protein, 15 minutes at 37° C.; for NAALADase inhibiting activity (comparison in words): compared with 2-(phosphonomethyl)pentanedioic acid
T1 construct: Ki; other: compared with 2-(phosphonomethyl)pentanedioic acid
Protocol: Various compounds of formula I were tested for in vitro inhibition of NAALADase activity.
Substrate and product were resolved by anion-exchange liquid chromatography. […] Quisqualate (100 μM) was included in parallel assay tubes to confirm the specificity of the measurements.

MPTP lesioned mice = experiment: In vivo assay on Parkinson's Disease (MPTP lesioned mice, TH immunostaining); design: species or system CD1 white mice
Protocol: MPTP lesioning of dopaminergic neurons in mice was used as an animal model of Parkinson's Disease, as described by Steiner, Proc. Natl. Acad. Sci., Vol. 94, pp. 2019-2024 (March 1997). In brief, four week old male CD1 white mice were dosed IP with 30 mg/kg of MPTP for 5 days. […] At 18 days following MPTP treatment, the mice were sacrificed and their brains were removed and sectioned. Immunostaining was performed on saggital and coronal brain sections using anti-tyrosine hydroxylase (TH) antibodies to quantitate survival and recovery of dopaminergic neurons.

NAALADase [2] = conditions: NAAG as substrate of NAALADase; cited from earlier work
cortical cell cultures [3] = experiment: In vitro toxicity of NAAG; type: cell-based, rats; conditions: 20 minutes
Protocol: See TABLE VII for the Dissociated Culture Protocol as used herein. […] Experiments are performed after 21 days in cultures.
At the end of exposure, the cells are washed once with HEPES buffered saline solution and then replaced with serum free modified Earle's basal medium. The cultures are then returned to the CO2 incubator for 24 hour recovery.
This control measurement is subtracted from each experimental point.

[4] = test system: spinal cord organotypic cultures; experiment: Spinal cord culture model of ALS (THA toxicity, ChAT activity); type: cell-based, rats; conditions: Table XII; THA without inhibitor
Protocol: Organotypic cultures were prepared from lumbar spinal cord of 8 day old rats, as described by Rothstein et al., J. Neurochem., Vol. 65, No. 2 (1995), and Rothstein et al., Proc. Natl. Acad. Sci. USA, Vol. 90, pp. 6591-6595 (July 1993). In brief, lumbar spinal cords were removed and sliced into 300 […] sections, and five slices were placed on Millipore CM semipermeable 30-mm-diameter membrane inserts. The inserts were placed on 1 ml of culture medium in 35-mm-diameter culture wells. Culture medium consisted of 50% minimal essential medium and phosphate-free HEPES (25 mM), 25% heat-inactivated horse serum, and 25% Hanks' balanced salt solution (GIBCO) supplemented with D-glucose (25.6 mg/ml) and glutamine (2 mM), at a final pH of 7.2. Antibiotic and antifungal agents were not used. Cultures were incubated at 37° C. in 5% CO2 containing humidified environment (Forma Scientific). Culture medium, along with any added pharmacological agents, was changed twice weekly.
Drugs were incubated for an additional 13 to 20 days with the 100 μM THA. At the end of this period, cultures were collected assayed for ChAT activity as described below.
To determine choline acetyltransferase (ChAT) activity, the spinal cord tissues in each dish (five slices) were pooled and frozen (−75° C.) until assay. ChAT activity was measured radiometrically by described methods using [^3H] acetyl-CoA (Amersham; Fonnum, 1975). Protein content of tissue homogenate was determined by a Coomassi Protein Assay kit (Pierce, Rockford, Ill.).

cortical cell cultures [5] = experiment: In vitro assay of NAALADase inhibitors on ischemia (potassium cyanide and 2-deoxyglucose, LDH release); type: cell-based, rats; conditions: Rattus norvegicus, 1 h, read-out: EC50 (concentration required to cause a 50% reduction in glutamate toxicity following an ischemic insult)
[6] = treated during ischemic insult and for one hour thereafter

| Ki (NAALADase [1]) [nM] | SMILES | EC50 (cortical cell cultures [5]; [6]) [nM] | other results |
| --- | --- | --- | --- |
| 180 | Cc1cccc(P(=O)(O)CC(CCC(=O)O)C(=O)O)c1 (centres unmarked) | – | – |
| 532 | O=C(O)CCC(CP(=O)(O)c1ccc(F)cc1)C(=O)O (centres unmarked) | – | – |
| 145 | O=C(O)CCC(CP(=O)(O)Cc1ccccc1F)C(=O)O (centres unmarked) | – | – |
| 204 | Cc1ccc(P(=O)(O)CC(CCC(=O)O)C(=O)O)cc1 (centres unmarked) | – | – |
| 185 | O=C(O)CCCC(CP(=O)(O)O)C(=O)O (centres unmarked) | – | – |
| 177 | O=C(O)CCC(CP(=O)(O)Cc1ccc(OCc2ccccc2)cc1)C(=O)O (centres unmarked) | – | – |
| 92 | O=C(O)CCC(CP(=O)(O)Cc1ccccc1C(F)(F)F)C(=O)O (centres unmarked) | – | – |
| 117 | O=C(O)CCC(CP(=O)(O)Cc1ccc(O)cc1)C(=O)O (centres unmarked) | – | – |
| 1.89 ± 0.19 | O=C(O)CCC(CP(=O)(O)CCC(=O)O)C(=O)O (centres unmarked) [2-[[(2-carboxyethyl)hydroxyphosphinyl]methyl]pentanedioic acid] | – | NAALADase inhibiting activity (comparison in words) (NAALADase [1]): lower NAALADase inhibiting activity |
| – | CN1CC=C(c2ccccc2)CC1 [MPTP, reference compound] | – | loss of functional dopaminergic terminals as compared to non-lesioned mice (MPTP lesioned mice; MPTP and vehicle): approximately 68%; Percent Strial TH Innervation Density (mean ± SEM) (MPTP lesioned mice; MPTP/vehicle, MPTP 30 mg/kg IP for 5 days): 7.82 ± 0.68% |
| – | CC(=O)N[C@@H](CC(=O)O)C(=O)N[C@@H](CCC(=O)O)C(=O)O [NAAG, N-acetyl-aspartyl-glutamate] (Ac-Asp-Glu-OH) | – | Km (NAALADase [2]): 0.54 µM; % Toxicity (cortical cell cultures [3]; NAAG 3 μM): 3.51 (n = 1) %; % Toxicity (cortical cell cultures [3]; NAAG 10 μM): 4.30 ± 3.12 (n = 3) %; % Toxicity (cortical cell cultures [3]; NAAG 30 μM): 11.40 ± 6.17 (n = 3) %; % Toxicity (cortical cell cultures [3]; NAAG 100 μM): 12.66 ± 5.50 (n = 3) %; % Toxicity (cortical cell cultures [3]; NAAG 300 μM): 13.50 ± 4.0 (n = 3) %; % Toxicity (cortical cell cultures [3]; NAAG 1 mM): 21.46 ± 4.20 (n = 3) %; % Toxicity (cortical cell cultures [3]; NAAG 3 mM): 45.11 ± 4.96 (n = 3) % |
| – | N[C@H](C(=O)O)[C@H](O)C(=O)O [THA, threohydroxyaspartate, reference compound] | – | ChAT Activity (% of Control) [4]: 0 % of Control |
| 34.1 | O=C(O)CCC(CP(=O)(O)Cc1ccccc1)C(=O)O (centres unmarked) [drawing 18] | – | – |
| 35.8 | O=C(O)CCC(CP(=O)(O)c1ccccc1)C(=O)O (centres unmarked) [drawing 19] | – | – |
| 113 | CCCCP(=O)(O)CC(CCC(=O)O)C(=O)O (centres unmarked) [drawing 21] | – | – |
| 148 | O=C(O)CCC(CP(=O)(O)CCc1ccccc1)C(=O)O (centres unmarked) [drawing 23] | – | – |
| 232 | O=C(O)CCC(CP(=O)(O)CCCc1ccccc1)C(=O)O (centres unmarked) [drawing 24] | – | – |
| 68 | Cc1ccc(CP(=O)(O)CC(CCC(=O)O)C(=O)O)cc1 (centres unmarked) [drawing 27] | – | – |

| Ki (NAALADase [1]) [nM] | SMILES | EC50 (cortical cell cultures [5]; [6]) [nM] | other results |
| --- | --- | --- | --- |
| 70 | O=C(O)CCC(CP(=O)(O)Cc1ccc(F)cc1)C(=O)O (centres unmarked) [drawing 28] | – | – |
| 22.7 | O=C(O)CCC(CP(=O)(O)Cc1c(F)c(F)c(F)c(F)c1F)C(=O)O (centres unmarked) [drawing 31] | – | – |
| 199 | O=C(O)C(CCc1ccccc1)CP(=O)(O)O (centres unmarked) [drawing 33] | – | – |
| 22.5 | O=C(O)CCC(CP(=O)(O)Cc1cccc(C(F)(F)F)c1)C(=O)O (centres unmarked) [drawing 36] | – | – |
| – | O=C(O)CCC(CP(=O)(O)O)C(=O)O (centres unmarked) [drawing 39] | – | EC50 (cortical cell cultures [5]): 0.67 nM |
| – | O=C(O)C(CCc1ccccc1)CP(=O)(O)O (centres unmarked) [drawing 40] | 373 | – |
| – | O=C(O)CCC(CP(=O)(O)Cc1cccc(C(F)(F)F)c1)C(=O)O (centres unmarked) [drawing 41] | 112 | – |
| – | O=C(O)CCC(CP(=O)(O)Cc1ccccc1)C(=O)O (centres unmarked) [drawing 42] | 132 | – |
| – | O=C(O)CCC(CP(=O)(O)c1ccccc1)C(=O)O (centres unmarked) [drawing 43] | 100 | – |
| – | O=C(O)CCC(CP(=O)(O)C(O)c1ccccc1)C(=O)O (centres unmarked) [drawing 44] | 767 | – |
| – | CCCCP(=O)(O)CC(CCC(=O)O)C(=O)O (centres unmarked) [drawing 45] | 794 | – |
| – | Cc1ccc(CP(=O)(O)CC(CCC(=O)O)C(=O)O)cc1 (centres unmarked) [drawing 46] | 37 | – |
| – | O=C(O)CCC(CP(=O)(O)Cc1ccc(F)cc1)C(=O)O (centres unmarked) [drawing 47] | 79 | – |
| – | O=C(O)CCC(CP(=O)(O)Cc1c(F)c(F)c(F)c(F)c1F)C(=O)O (centres unmarked) [drawing 48] | 2 | – |
| – | O=C(O)CCC(CP(=O)(O)CCc1ccccc1)C(=O)O (centres unmarked) [drawing 49] | 834 | – |
| – | O=C(O)CCC(CP(=O)(O)CCCc1ccccc1)C(=O)O (centres unmarked) [drawing 50] | 4320 | – |
| – | COc1ccc(CP(=O)(O)CC(CCC(=O)O)C(=O)O)cc1 (centres unmarked) [drawing 51] | 1670 | – |

| SMILES | Ki (NAALADase [1]) [nM] | EC50 (cortical cell cultures [5]; [6]) [nM] | other results |
| --- | --- | --- | --- |
| CP(=O)(O)CC(CCC(=O)O)C(=O)O (centres unmarked) | 1100 | – | – |
| O=C(O)CC(CP(=O)(O)O)C(=O)O (centres unmarked) [2-(phosphonomethyl)succinic acid] | 700 ± 67.3 | – | NAALADase inhibiting activity (comparison in words) (NAALADase [1]): much lower NAALADase inhibiting activity |
